Reference: US6797723B1, “Heterocycle substituted diphenyl leukotriene antagonists” (Eli Lilly and Company, priority 1999, dated 2004)
Several values for one entry are separate records, joined by “and”; a condition that tells them apart may be missing. Equal entries are not always repeated. Structures can show the parent of a compound that is named as a salt. Where two headings read alike, the source gives them in different places.

Experiments:
[1] = tested on: LTB4-mediated CD11b upregulation on human neutrophils; test: LTB4-mediated CD11b upregulation on human neutrophils (flow cytometry, anti-CD11b-FITC); type: cell-based
Protocol: The following Assay method was used to evaluate the effects of 3 compounds for LTB4-mediated CD11b upregulation on human neutrophils:
Note: The Assay procedure described herein was modeled after a previously published method(viz., Prostaglandins, Leukot, Essent. Fatty Acids. 46:265-270. 1992, Biochem. Pharmacol. 49:1683-1690. 1995), the disclosure of which is incorporated herein by reference.
Approximately 1-2 mg of each compound was weighed and diluted to 1 mM in neat dimethyl sulphoxide (DMSO). These stocks were then diluted (using “doubling” dilutions) in assay buffer.
The assay buffer used throughout the studies consisted of Hanks Balanced Salts Solution (HBSS) with added 0.5% bovine serum albumin, low endotoxin (ICN Biomedicals Catalog #16-980-49). After dissolving the BSA in the HBSS, the buffer was membrane-filtered (0.2 μ) before use.
Human blood was drawn into 3×10 ml EDTA-K3 Vacutainer tubes, which were pooled and mixed in a 50 ml, blue cap polypropylene tube. Three ml portions of Mono-Poly Resolving medium (MPRM; ICN #16-980-49) were dispensed into 4 separate 13×100 glass disposable tubes. An additional 0.3 ml of PBS (phosphate buffered saline) was added to each tube and mixed with the MPRM by vigorous vortexing. Exactly 3.5 ml of the blood was carefully layered on top of the four MPRM-water mixtures. The tubes were gradually accelerated to 400×g and spun at this speed for 30 min at room temperature. Tubes were removed from the centrifuge and both the plasma and top cell (mononuclear) layers were removed and discarded. The second layer of cells was carefully collected, pooled and washed with assay buffer. The collected neutrophil cell preparation was then spun at 400×g for 5 min and re-washed once again. The cells were resuspended in assay buffer and counted using a Cell-Dyn 1600 cell counter (Abbott Diagnostics Co.). They were then resuspended in buffer at 9×10^6 cells/ml and held briefly for addition in a later step of the assay.
LTB4, (Biomol; ETOH stock @148.5 μM) was diluted to a 3.9 μM stock in assay buffer by dilution of 10 μl ETOH stock+371 μl assay buffer, mixed well and further diluted 1:100 (100 μl+9.9 ml buffer) to make a use stock of 39 nm in buffer for later use. The final concentration of LTB4 (3 nM) was determined after several experimental runs.
Exactly 10 μl of each putative compound/dilution and 10 μl of anti-CD11b-FITC (FITC=Fluorescein Isothiocyanate; Biosource Intl., #AHS1148) was carefully added to the bottom of 12×75 mm polypropylene tubes (Falcon #2063) as determined by the experimental design. Following this, 100 μl of the human neutrophil preparation (9E6/ml) was added and mixed well by vortexing. The compound/cell mixtures were incubated together for 15 minutes at room temperature. Following this incubation, 10 μl of diluted LTB4 stock was added (to make 3 nM final LTB4 concentration), mixed by vortexing and incubated in a 37° C. shaking water bath for 30 min. Following this the tubes were immediately placed on ice for 10 minutes. Following this 1 ml of diluted BD FACS Lyse (Becton Dickinson Fluorescense Activated Cell Sorting Lyse) was added to the tubes and vortexed. 10 minutes later the tubes were spun at 400×g at room temperature. After centrifugation, the tubes were aspirated and re-suspended in 1.0 ml of 1% paraformaldehyde solution.
The samples were then analyzed for fluorescence intensity (linear scale) using an EPICS XL flow cytometer and the “Mo-1 Isolated Neutrophil” protocol.
The mean fluorescence intensity (MFI) for each sample was computed using WinList software and expressed as percentage of maximum MFI.Microsoft Excel and further graphed and analyzed using linear regression.

[2] = Homo sapiens, Neutrophil, isolated human neutrophils, 3 nM LTB4, semicolons separate individual assay determinations, read-out: CD11b/CD18 IC50
[3] = isolated human neutrophils, 3 nM LTB4, semicolons separate individual assay determinations, read-out: CD11b/CD18 IC50
[4] = Homo sapiens, Neutrophil, read-out: CD11b/CD18 IC50 (nM), isolated human neutrophils, 3 nM LTB4, semicolons separate individual assay determinations
[5] = read-out: CD11b/CD18 IC50, isolated human neutrophils, 3 nM LTB4, semicolons separate individual assay determinations, sodium salt

Q: Which melting point does the source give for CCCc1c(OCCCOc2cc(O)c(C3CCOC3)cc2CC)cccc1Oc1ccccc1C(=O)[O-].[Na+] (stereo not shown) (hydrate or solvate) [Example 15, 2-(3-{3-[2-Ethyl-5-hydroxy-4-(tetrahydrofuran-3-yl)phenoxy]propoxy}-2-propylphenoxy)benzoic acid sodium salt hemihydrate] here?
A: 67 to 71 °C

Q: Which melting point does the source give for CCCc1c(OCCCOc2cc(O)c(-c3ccsc3)cc2CC)cccc1Oc1ccccc1C(=O)O (hydrate or solvate) [Example 17, 2-{3-[3-(2-Ethyl-5-hydroxy-4-thiophen-3-yl-phenoxy)propoxy]-2-propyl-phenoxy}benzoic acid hydrate] here?
A: 90 to 95 °C (dec.)

Q: Which IC50 ([1]; Homo sapiens, Neutrophil, comparison compounds, isolated human neutrophils, 3 nM LTB4, A = average of 3 tests, read-out: IC-50 (nM) ± SEM) does the source give for CCCc1c(OCCCOc2cc(O)c(-c3ccc(F)cc3)cc2CC)cccc1Oc1ccccc1C(=O)O [Compound A, reference compound] here?
A: 1.7 ± 0.25 nM

Q: Which “IC-50 (nM) ± SEM” value ([1]; comparison compounds, isolated human neutrophils, 3 nM LTB4, A = average of 3 tests) does the source give for CCCc1c(OCCCOc2cc(O)c(-c3ccc(F)cc3)cc2CC)cccc1Oc1ccccc1C#N [Compound B, reference compound] here?
A: not active

Q: For CCCc1c(OCCCOc2cc(O)c(-c3cocn3)cc2CC)cccc1Oc1ccccc1C(=O)O [Example 1, 2-{3-[3-(2-Ethyl-5-hydroxy-4-oxazol-4-yl-phenoxy)propoxy]-2-propyl-phenoxy}benzoic acid], which IC50 [1, 2] is on record?
A: 480 nM

Q: For CCCc1c(OCCCOc2cc(O)c(-c3cnc[nH]3)cc2CC)cccc1Oc1ccccc1C(=O)O [Example 2, 2-(3-{3-[2-Ethyl-5-hydroxy-4-(3H-imidazol-4-yl)phenoxy]propoxy}-2-propyl-phenoxy)benzoic acid hydrochloride], which IC50 [1, 2] is on record?
A: 5880 nM

Q: With CCCc1c(OCCCOc2cc(O)c(-c3cscn3)cc2CC)cccc1Oc1ccccc1C(=O)O [Example 3, 2-{3-[3-(2-Ethyl-5-hydroxy-4-thiazol-4-yl-phenoxy)propoxy]-2-propyl-phenoxy}benzoic acid] as the compound, how does the IC50 [1, 2] read?
A: 353 nM

Q: And the IC50 [1, 3]?
A: 339 nM

Q: Which IC50 [1, 2] does the source give for CCCc1c(OCCCOc2cc(O)c(-c3ccn[nH]3)cc2CC)cccc1Oc1ccccc1C(=O)O [Example 4, 2-(3-{3-[2-Ethyl-5-hydroxy-4-(2H-pyrazol-3-yl)phenoxy]propoxy}-2-propyl-phenoxy)benzoic acid] here?
A: 74 nM

Q: And the IC50 [1, 3]?
A: 117 nM

Q: Which results are given for CCCc1c(OCCCOc2cc(O)c(-c3ccno3)cc2CC)cccc1Oc1ccccc1C(=O)O [Example 5, 2-{3-[3-(2-ethyl-5-hydroxy-4-isoxazol-5-yl-phenoxy)propoxy]-2-propylphenoxy}benzoic acid]?
A: IC50 [1, 2]: 175 nM; IC50 [1, 3]: 223 nM

Q: For CCCc1c(OCCCOc2cc(O)c(-c3cnn[nH]3)cc2CC)cccc1Oc1ccccc1C(=O)O [Example 6], which IC50 [1, 2] is on record?
A: 260 nM

Q: With CCCc1c(OCCCOc2cc(O)c(-n3cccc3)cc2CC)cccc1Oc1ccccc1C(=O)OC [Example 7, 2-{3-[3-(2-ethyl-5-hydroxy-4-pyrrol-1-yl-phenoxy)propoxy]-2-propyl-phenoxy}benzoic acid methyl ester] as the compound, how does the IC50 [1, 2] read?
A: 2020 nM

Q: And the IC50 [1, 3]?
A: 3790 nM

Q: For CCCc1c(OCCCOc2cc(O)c(-c3nc(Br)ns3)cc2CC)cccc1Oc1ccccc1C(=O)O [Example 8, 2-(3-{3-[4-(3-bromo-[1,2,4]thiadiazol-5-yl)-2-ethyl-5-hydroxyphenoxy]propoxy}-2-propylphenoxy)benzoic acid], which IC50 [1, 2] is on record?
A: > 50000 nM

Q: What does the source list for CCCc1c(OCCCOc2cc(O)c(-c3cccs3)cc2CC)cccc1Oc1ccccc1C(=O)O [Example 9, 2-{3-[3-(2-Ethyl-5-hydroxy-4-thiophen-2-yl-phenoxy)propoxy]-2-propyl-phenoxy}benzoic acid sodium salt]?
A: IC50 [1, 4]: 23 nM; IC50 [1, 5]: 20 nM

Q: Which IC50 [1, 3] does the source give for CCCc1c(OCCCOc2cc(O)c(-c3cnn(C)c3)cc2CC)cccc1Oc1ccccc1C(=O)O [Example 10, 2-(3-{3-[2-ethyl-5-hydroxy-4-(1-methyl-1H-pyrazol-4-yl)-phenoxy]propoxy}-2-propylphenoxy)benzoic acid] here?
A: 14 nM and 4.4 nM and 8.3 nM

Q: Which IC50 [1, 3] does the source give for CCCc1c(OCCCOc2cc(O)c(-c3nccs3)cc2CC)cccc1Oc1ccccc1C(=O)O [Example 11, 2-{3-[3-(2-Ethyl-5-hydroxy-4-thiazol-2-yl-phenoxy)propoxy]-2-propyl-phenoxy}benzoic acid] here?
A: 620 nM and 2560 nM and 1010 nM

Q: For CCCc1c(OCCCOc2cc(O)c(-c3c(C)noc3C)cc2CC)cccc1Oc1ccccc1C(=O)O [Example 12, 2-(3-{3-[4-(3,5-Dimethylisoxazol-4-yl)-2-ethyl-5-hydroxyphenoxy]propoxy}-2-propylphenoxy)benzoic acid sodium salt], which IC50 [1, 4] is on record?
A: 10000 nM

Q: What about the IC50 [1, 5] of the same compound?
A: 5700 nM

Q: What does the source list for CCCc1c(OCCCOc2cc(O)c(-c3ccco3)cc2CC)cccc1Oc1ccccc1C(=O)O [Example 13, 2-{3-[3-(2-Ethyl-4-furan-2-yl-5-hydroxyphenoxy)propoxy]-2-propylphenoxy}-benzoic acid sodium salt]?
A: IC50 [1, 4]: 39 nM; IC50 [1, 5]: 54 nM

Q: Which IC50 [1, 2] does the source give for CCCc1c(OCCCOc2cc(O)c(-c3ccoc3)cc2CC)cccc1Oc1ccccc1C(=O)O [Example 14] here?
A: 31 nM

Q: And the IC50 [1, 3]?
A: 30 nM

Q: With CCCc1c(OCCCOc2cc(O)c(C3CCOC3)cc2CC)cccc1Oc1ccccc1C(=O)O (stereo not shown) [Example 15, 2-(3-{3-[2-Ethyl-5-hydroxy-4-(tetrahydrofuran-3-yl)phenoxy]propoxy}-2-propylphenoxy)benzoic acid sodium salt hemihydrate] as the compound, how does the IC50 [1, 4] read?
A: 27 nM

Q: Which IC50 [1, 2] does the source give for CCCc1c(OCCCOc2cc(O)c(C3CCCN3)cc2CC)cccc1Oc1ccccc1C(=O)O (stereo not shown) [Example 16, 2-{3-[3-(2-Ethyl-5-hydroxy-4-pyrrolidin-2-yl-phenoxy)propoxy]-2-propyl-phenoxy}benzoic acid hydrochloride hydrate] here?
A: 1080 nM

Q: What about the IC50 ([1]; isolated human neutrophils, 3 nM LTB4, semicolons separate individual assay determinations, hydrochloride hydrate, read-out: CD11b/CD18 IC50) of the same compound?
A: 837 nM

Q: Which results are given for CCCc1c(OCCCOc2cc(O)c(-c3ccsc3)cc2CC)cccc1Oc1ccccc1C(=O)O [Example 17, 2-{3-[3-(2-Ethyl-5-hydroxy-4-thiophen-3-yl-phenoxy)propoxy]-2-propyl-phenoxy}benzoic acid hydrate]?
A: IC50 [1, 2]: 11 nM; IC50 ([1]; isolated human neutrophils, 3 nM LTB4, semicolons separate individual assay determinations, hydrate, read-out: CD11b/CD18 IC50): 5.6 nM and 8 nM
